According to US4386090A, “Nitrogen containing 2,3-dihydro naphthalenes, compositions and use” (Delalande S.A., priority 1980, dated 1983):

Experiments:
[1] = acute toxicity (LD 50); settings: in vivo, ip
Excerpt: To illustrate the invention, there are shown in table IV below, the results obtained in these two tests and the acute toxicity (LD 50) of some compounds of formula (I).

[2] = test system: mice; assay: analgesic activity, phenylbenzoquinone test (E. SIEGMUND); type: in vivo; settings: Mus musculus, ip, read-out: ED 50 analgesic property
Excerpt: Soc. Exp. Biol. and Med. 95, 729, (1957).

[3] = test system: mice; assay: antidepressive activity, antagonism to ptosis after intravenous injection of reserpine; type: in vivo; settings: Mus musculus, ip, 1 h, i.p., ptosis observed an hour after i.v. reserpine 2 mg/kg, read-out: ED 50 antidepressive property
Excerpt: GOURET and J. THOMAS in J. Pharmacol. (Paris) (1973), 4, 401.

Compound: Cc1ccc2c(c1)C(c1ccccc1)=NC(CN1CCN(C)CC1)C2 (stereo not drawn) [compound 99]
- LD50 [1]: 130 mg/kg
- ED50 [2]: 30 mg/kg

Compound: CN(C)CC1Cc2ccc(F)cc2C(c2ccccc2)=N1 (stereo not drawn) [compound 10]
- ED50 [3]: 2.8 mg/kg
- LD50 [1]: 60 mg/kg
- ED50 [2]: 4 mg/kg

Compound: Cc1ccccc1C1=NC(CCN(C)C)Cc2ccccc21 (stereo not drawn) [compound 31]
- ED50 [3]: 1.8 mg/kg
- LD50 [1]: 50 mg/kg
- ED50 [2]: 5.6 mg/kg

Compound: CN(C)CC1COc2ccccc2C(c2ccc(Cl)cc2)=N1 (stereo not drawn) [compound 44]
- ED50 [3]: 10 mg/kg
- LD50 [1]: 130 mg/kg
- ED50 [2]: 9.8 mg/kg

Compound: Cc1ccc2c(c1)C(c1ccccc1)=NC(CN1CCOCC1)C2 (stereo not drawn) [compound 98]
- LD50 [1]: 125 mg/kg
- ED50 [2]: 30 mg/kg

Compound: CN(C)CCC1Cc2ccccc2C(c2ccc(Cl)cc2)=N1 (stereo not drawn) [compound 27]
- ED50 [3]: 4.4 mg/kg
- LD50 [1]: 70 mg/kg
- ED50 [2]: 11 mg/kg

Compound: CN(C)CC1COc2ccccc2C(c2cccc(F)c2)=N1 (stereo not drawn) [compound 87]
- ED50 [3]: 30 mg/kg
- LD50 [1]: 100 mg/kg

Compound: CN(C)CCC1Cc2ccccc2C(c2ccccc2)=N1 (stereo not drawn) [compound 17]
- ED50 [3]: 1.5 mg/kg
- LD50 [1]: 65 mg/kg
- ED50 [2]: 6 mg/kg

Compound: CN(C)CC1COc2ccccc2C(c2cccc(Cl)c2)=N1 (stereo not drawn) [compound 43]
- ED50 [3]: 3 mg/kg
- LD50 [1]: 65 mg/kg
- ED50 [2]: 10 mg/kg

Compound: CN(C)CCC1C=C(c2ccccc2F)c2ccccc2C1 (stereo not drawn) [compound 101]
- ED50 [3]: 0.4 mg/kg
- LD50 [1]: 93 mg/kg
- ED50 [2]: 4.3 mg/kg

Compound: COc1ccccc1C1=NC(CCN(C)C)Cc2ccccc21 (stereo not drawn) [compound 28]
- ED50 [3]: 3 mg/kg
- LD50 [1]: 42 mg/kg
- ED50 [2]: 10 mg/kg

Compound: CN(C)CCC1Cc2ccccc2C(c2ccccc2[N+](=O)[O-])=N1 (stereo not drawn) [compound 34]
- ED50 [3]: 1 mg/kg
- LD50 [1]: 77 mg/kg
- ED50 [2]: 3.4 mg/kg

Compound: NCCC1Cc2ccccc2C(c2ccccc2F)=N1 (stereo not drawn) [compound 20]
- ED50 [3]: 1.8 mg/kg
- LD50 [1]: 62 mg/kg
- ED50 [2]: 3.7 mg/kg

Compound: COc1cc2c(cc1OC)C(c1ccccc1)=NC(CN(C)C)C2 (stereo not drawn) [compound 14]
- LD50 [1]: 135 mg/kg
- ED50 [2]: 15 mg/kg

Compound: COc1ccc2c(c1)C(c1ccccc1)=NC(CN1CCN(C)CC1)C2 (stereo not drawn) [compound 100]
- ED50 [3]: 9 mg/kg
- LD50 [1]: 140 mg/kg
- ED50 [2]: 30 mg/kg

Compound: CN(C)CCC1Cc2ccccc2C(c2ccccn2)=N1 (stereo not drawn) [compound 86]
- ED50 [3]: 4 mg/kg
- LD50 [1]: 94 mg/kg
- ED50 [2]: 10 mg/kg

Compound: COc1ccc2c(c1)C(c1ccccc1)=NC(CN(C)C)C2 (stereo not drawn) [compound 13]
- LD50 [1]: 65 mg/kg
- ED50 [2]: 3 mg/kg

Compound: Cc1ccc2c(c1)C(c1ccccc1)=NC(CN1CCCCC1)C2 (stereo not drawn) [compound 97]
- LD50 [1]: 52 mg/kg
- ED50 [2]: 10 mg/kg

Compound: Cc1cccc(C2=NC(CCN(C)C)Cc3ccccc32)c1 (stereo not drawn) [compound 32]
- ED50 [3]: 6.6 mg/kg
- LD50 [1]: 67 mg/kg
- ED50 [2]: 6.6 mg/kg

Compound: CN(C)CC1Cc2ccc(Cl)cc2C(c2ccccc2F)=N1 (stereo not drawn) [Code Number 9]
- ED50 [3]: 4.3 mg/kg
- LD50 [1]: 52 mg/kg
- ED50 [2]: 3 mg/kg

Compound: CN(C)CCCC1Cc2ccccc2C(c2ccccc2)=N1 (stereo not drawn) [compound 38]
- ED50 [3]: 3.4 mg/kg
- LD50 [1]: 85 mg/kg

Compound: CN(C)CC1COc2ccccc2C(c2ccccc2F)=N1 (stereo not drawn) [compound 41]
- ED50 [3]: 3.5 mg/kg
- LD50 [1]: 62 mg/kg
- ED50 [2]: 7.2 mg/kg

Compound: COc1ccc(C2=NC(CCN(C)C)Cc3ccccc32)cc1 (stereo not drawn) [compound 30]
- ED50 [3]: 4.2 mg/kg
- LD50 [1]: 70 mg/kg

Compound: CN(C)CCC1Cc2ccccc2C(c2ccccc2Br)=N1 (stereo not drawn) [compound 36]
- ED50 [3]: 2.4 mg/kg
- LD50 [1]: 77 mg/kg

Compound: CN(C)CC1Cc2ccccc2C(c2ccccc2F)=N1 (stereo not drawn) [Code Number 8]
- ED50 [3]: 1.1 mg/kg
- LD50 [1]: 35 mg/kg
- ED50 [2]: 2.3 mg/kg

Compound: CN(C)CCCC1Cc2ccccc2C(c2ccccc2F)=N1 (stereo not drawn) [compound 39]
- ED50 [3]: 0.7 mg/kg
- LD50 [1]: 100 mg/kg
- ED50 [2]: 1.9 mg/kg

Compound: CN(C)CCC1Cc2ccccc2C(c2ccccc2Cl)=N1 (stereo not drawn) [compound 25]
- ED50 [3]: 3.7 mg/kg
- LD50 [1]: 60 mg/kg
- ED50 [2]: 3.8 mg/kg

Compound: CN(C)CCC1Cc2ccccc2C(c2ccc([N+](=O)[O-])cc2)=N1 (stereo not drawn) [compound 35]
- ED50 [3]: 8 mg/kg
- LD50 [1]: 80 mg/kg
- ED50 [2]: 8 mg/kg
